Measured values as given in US5449814A, “Lignan analogues, methods of preparation thereof and anti-hyperlipemic agents” (Shionogi & Co., Ltd., priority 1991, dated 1995).
Read-outs that look alike come from different tables or passages of the source.

Key:
cholesterol in serum = test: Hypocholesterolemic effect in cholesterol-fed mice; assay type: in vivo, Male ICR mice; conditions: Mus musculus, po, 168 h, diet 1% cholesterol and 0.5% sodium cholate with 0.12% test compound, 7 days
Procedure: Hypocholesterolemic effect
Male ICR mice weighing 30 to 40 g were allowed to access to a diet containing 1% cholesterol and 0.5% sodium cholate supplemented with 0.12% of a test compound (no test compound in control group) ad libitum for 7 days. Then, the blood was taken and total cholesterol in serum was determined by the method of Allain (Clin. Chem., Vol. 20, 470 (1974)).
Total amount of VLDL cholesterol and LDL cholesterol was obtained by subtracting HLD cholesterol from total cholesterol. HLD cholesterol was quantified by the method of Ash and Hentschel et al. (Clin. Chem., Vol. 24, 2180 (1978)).
Hypocholesterolemic effect of a test compound was evaluated based on % reduction in cholesterol calculated using the equation shown below.

LDL = test: Inhibitory effect on oxidative modification of LDL (copper-induced, TBA reactive substances); assay type: biochemical, New Zealand albino rabbits; conditions: rabbit LDL 0.2 mg protein/ml, 0.5 μM Cu^2+, 37° C., 24 hours; read-out: Inhibition of LDL oxidation IC50
Procedure: Inhibitory effect on oxidative modification of LDL
According to the method by Kita et al. (Proc. Natl. Acad. Sci., U.S.A, Vol. 84, 5928 (1987)), the experiment was proceeded as follows.
LDL was isolated from the blood of New Zealand albino rabbits fed with a diet containing 0.5% cholesterol for 3 weeks, and dissolved in phosphate-buffered physiological saline (final LDL concentration: 0.2 mg protein/ml). To this solution, each test compound in ethanol was added and then copper sulfate (final Cu^2+ concentration: 0.5 μM) was added thereto. The mixture was incubated at 37° C. for 24 hours.
After incubation, the content of lipid peroxides in each solution was determined as thiobarbituric acid reactive substances (TBA reactive substances). Concentration for 50% inhibition (IC50) was obtained from a linear regression curve of concentration of a compound versus % inhibition of oxidative modification of LDL. To quantify TBA reactive substances, proteins were removed from the solution after incubation, and the supernatant was examined for the content of TBA reactive substances by TBA method.

[1] = serum, read-out: Total Chol. reduction (%)
[2] = total minus HDL cholesterol, read-out: (VLDL + LDL) Chol. reduction (%)

Compound | inhibition in vivo at 0.12 % in diet (cholesterol in serum; [1]) | inhibition in vivo at 0.12 % in diet (cholesterol in serum; [2]) | IC50 (LDL)
COC(=O)c1c(C(=O)c2ccc(C(C)(C)C)cc2)c(O)c2cc(OC)c(OC)c(OC)c2c1-c1ccc(OC)c(OC)c1 [Example 30, 3-[4-(t-Butyl)benzoyl]-1-(3,4-dimethoxyphenyl)-4-hydroxy-2-methoxycarbonyl-6,7,8-trimethoxynaphthalene] | 7% | 44% | 2000 nM
COC(=O)c1c(C(=O)C(F)(F)C(F)(F)F)c(O)c2cc(OC)c(OC)c(OC)c2c1-c1ccc(OC)c(OC)c1 [Example 31, 1-(3,4-Dimethoxyphenyl)-4-hydroxy-2-methoxycarbonyl-3-(pentafluoro-1-oxopropyl)-6,7,8-trimethoxynaphthalene] | 15% | 41% | 850 nM
CCC(CC)CC(=O)c1c(C(=O)OC)c(-c2ccc(OC)c(OC)c2)c2cc3c(cc2c1O)OCCO3 [Example 36, 1-(3,4-Dimethoxyphenyl)-6,7-ethylenedioxy-3-(3-ethyl-1-oxopentyl)-4-hydroxy-2-(methoxycarbonyl)naphthalene] | 21% | 49% | 2210 nM
CCC(=O)c1c(C(=O)OC)c(-c2ccc(OC)c(OC)c2)c2cc(OC(C)C)c(OC(C)C)cc2c1O [Example 38, 6,7-Bis(2-propyloxy)-1-(3,4-dimethoxyphenyl)-4-hydroxy-2-methoxycarbonyl-3-(1-oxopropyl)naphthalene] | 26% | 61% | 2100 nM
COC(=O)c1c(C(=O)c2ccc(C(F)(F)F)cc2)c(O)c2cc(OC(C)C)c(OC(C)C)cc2c1-c1ccc(OC)c(OC)c1 [Example 40, 6,7-Bis(2-propyloxy)-1-(3,4-dimethoxyphenyl)-4-hydroxy-2-methoxycarbonyl-3-[4-(trifluoromethyl)benzoyl]naphthalene] | 23% | 56% | 4290 nM
CCC(=O)c1c(C(=O)OC)c(-c2ccc(OC)cc2OC)c2c(OC)c(OC)c(OC)cc2c1O [Example 41, 1-(2,4-Dimethoxyphenyl)-4-hydroxy-2-methoxycarbonyl-3-(1-oxopropyl)-6,7,8-trimethoxynaphthalene] | 11% | 41% | 17000 nM
CCC(CC)CC(=O)c1c(C(=O)OC)c(-c2ccc(OC)cc2OC)c2c(OC)c(OC)c(OC)cc2c1O [Example 42, 1-(2,4-Dimethoxyphenyl)-3-(3-ethyl-1-oxopentyl)-4-hydroxy-2-methoxycarbonyl-6,7,8-trimethoxynaphthalene] | 5% | 26% | 1680 nM
COC(=O)c1c(C(=O)c2ccc(C(F)(F)F)cc2)c(O)c2cc(OC)c(OC)c(OC)c2c1-c1ccc(OC)cc1OC [Example 43, 1-(2,4-Dimethoxyphenyl)-4-hydroxy-2-methoxycarbonyl-3-[4-(trifluoromethyl)benzoyl]-6,7,8-trimethoxynaphthalene] | 15% | 59% | 2120 nM
COC(=O)c1c(C(=O)c2ccc(C(F)(F)F)cc2)c(O)c2cc3c(cc2c1-c1ccc(OC)cc1OC)OCO3 [Example 46, 1-(2,4-Dimethoxyphenyl)-4-hydroxy-2-methoxycarbonyl-6,7-methylenedioxy-3-[4-(trifluoromethyl)benzoyl]naphthalene] | 5% | 47% | 6200 nM
CCC(=O)c1c(C(=O)OC)c(-c2ccc(OC)c(OC)c2)c2sc(CC)c(OC)c2c1O [Example 56, 7-(3,4-Dimethoxyphenyl)-2-ethyl-4-hydroxy-3-methoxy-6-methoxycarbonyl-5-(1-oxopropyl)benzo[b]thiophene] | 20% | 58% | 1280 nM
CCC(CC)CC(=O)c1c(C(=O)OC)c(-c2ccc(OC)c(F)c2)c2c(OC)c(OC)c(OC)cc2c1O [Example 61, 3-(3-Ethyl-1-oxopentyl)-1-(3-fluoro-4-methoxyphenyl)-4-hydroxy-2-methoxycarbonyl-6,7,8-trimethoxynaphthalene] | 11% | 43% | 4950 nM
COc1ccc(-c2c(C)c(C(=O)c3ccc(C(F)(F)F)cc3)c(O)c3cc(OC)c(OC)c(OC)c23)cc1OC [Example 62, 1-(3,4-dimethoxyphenyl)-4-hydroxy-2-methyl-3-[4-(trifluoromethyl)benzoyl]-6,7,8-trimethoxynaphthalene] | 27% | 59% | 8980 nM
COc1ccc(-c2c(C(F)(F)F)c(C(=O)c3ccc(C(F)(F)F)cc3)c(O)c3cc(OC)c(OC)c(OC)c23)cc1OC [Example 63, 1-(3,4-dimethoxyphenyl)-4-hydroxy-2-(trifluoromethyl)-3-[4-(trifluoromethyl)benzoyl]-6,7,8-trimethoxynaphthalene] | 20% | 53% | 2320 nM
CCC(CC)C(=O)c1c(C)c(-c2ccc(OC)c(OC)c2)c2c(OC)c(OC)c(OC)cc2c1O [Example 64, 1-(3,4-dimethoxyphenyl)-3-(2-ethyl-1-oxobutyl)-4-hydroxy-2-methyl-6,7,8-trimethoxynaphthalene] | 2% | 39% | 7100 nM
CCC(CC)C(=O)c1c(C(F)(F)F)c(-c2ccc(OC)c(OC)c2)c2c(OC)c(OC)c(OC)cc2c1O [Example 66, 1-(3,4-Dimethoxyphenyl)-3-(2-ethyl-1-oxobutyl)-4-hydroxy-2-(trifluoromethyl)-6,7,8-trimethoxynaphthalene] | 9% | 36% | 1470 nM
CCC(CC)CC(=O)c1c(C(=O)OC)c(-c2ccc(OC)c(OC)c2)c2c(OC)c(OC)c(OC)c(OC)c2c1O [Example 69, 1-(3,4-dimethoxyphenyl)-3-(3-ethyl-1-oxopentyl)-4-hydroxy-2-methoxycarbonyl-5,6,7,8-tetramethoxynaphthalene] | 10% | 16% | 2790 nM
CCC(CC)CC(=O)c1c(C(=O)OC)c(-c2ccc(OC)c(OC)c2)c2c(OC)c(OC)c(OC)c(CO)c2c1O [Example 71, 1-(3,4-dimethoxyphenyl)-3-(3-ethyl-1-oxopentyl)-4-hydroxy-5-hydroxymethyl-2-methoxycarbonyl-6,7,8-trimethoxynaphthalene] | 16% | 44% | 5960 nM
CCC(=O)c1c(C(=O)OC)c(-c2ccc(OC)c(OC)c2)c2c(OC)c(OC)c(OC)c(C)c2c1O [Example 72, 1-(3,4-dimethoxyphenyl)-3-(1-oxopropyl)-4-hydroxy-2-methoxycarbonyl-5-methyl-6,7,8-trimethoxynaphthalene] | 20% | 64% | 590 nM
CCC(=O)c1c(C(=O)OC)c(-c2ccc(OC)c(OC)c2)c2c(OC)c(OC)c(OC)c(OC)c2c1O [Example 73, 1-(3,4-dimethoxyphenyl)-3-(1-oxopropyl)-4-hydroxy-2-methoxycarbonyl-5,6,7,8-tetramethoxynaphthalene] | 13% | 60% | 2920 nM
CCC(=O)c1c(C(=O)OC)c(-c2ccc(OC)c(OC)c2)c2c(OC)c(OC)c(OC)c(COC)c2c1O [Example 74, 1-(3,4-dimethoxyphenyl)-3-(1-oxopropyl)-4-hydroxy-2-methoxycarbonyl-5-methoxymethyl-6,7,8-trimethoxynaphthalene] | 6% | 41% | 6560 nM
COC(=O)c1c(C(=O)C(C)C)c(O)c2c(C)c(OC)c(OC)c(OC)c2c1-c1ccc(OC)c(OC)c1 [Example 76, 1-(3,4-dimethoxyphenyl)-3-(2-methyl-1-oxo-propyl)-4-hydroxy-2-methoxycarbonyl-5-methyl-6,7,8-trimethoxynaphthalene] | 15% | 43% | 540 nM
COC(=O)c1c(C(=O)C(C)C)c(O)c2c(OC)c(OC)c(OC)c(OC)c2c1-c1ccc(OC)c(OC)c1 [Example 77, 1-(3,4-dimethoxyphenyl)-3-(2-methyl-1-oxopropyl)-4-hydroxy-2-methoxycarbonyl-5,6,7,8-tetramethoxynaphthalene] | 18% | 53% | 2550 nM
